Measurements as given in patent US20110143948A1, “MOLECULAR SIGNATURES AND BIOMARKERS ASSOCIATED WITH MELANOMA AND METHODS OF USE THEREOF” (priority 2008, published 2011).

How the values were obtained:
ncRNAs (SEQ ID NO 28-89) = assay: ncRNA arrays of melanocytes, keratinocytes, normal skin, melanoma cell lines and patient samples; parameters: species or system human; conditions: for ncRNA array expression, patient 2: melanoma patient 2 sample compared to normal skin; for ncRNA array expression, patient 3: melanoma patient 3 sample compared to normal skin; for ncRNA array expression, patient 4: melanoma patient 4 sample compared to normal skin; for ncRNA array expression, patient 5: melanoma patient 5 sample compared to normal skin; for ncRNA array expression, patient 6: melanoma patient 6 sample compared to normal skin; for ncRNA array expression, patient 7: melanoma patient 7 sample compared to normal skin; for ncRNA array expression, patient 8: melanoma patient 8 sample compared to normal skin; for ncRNA array expression, patient 9: melanoma patient 9 sample compared to normal skin; for ncRNA array expression, patient 10: melanoma patient 10 sample compared to normal skin; for ncRNA array expression, patient 19: melanoma patient 19 sample compared to normal skin; for ncRNA array expression, patient 20: melanoma patient 20 sample compared to normal skin; for ncRNA array expression, patient 21: melanoma patient 21 sample compared to normal skin; for ncRNA array expression, patient 22: melanoma patient 22 sample compared to normal skin; for ncRNA array expression, patient 23: melanoma patient 23 sample compared to normal skin; for ncRNA array expression, patient 24: melanoma patient 24 sample compared to normal skin; for ncRNA array expression, patient 25: melanoma patient 25 sample compared to normal skin; for ncRNA array expression, patient 26: melanoma patient 26 sample compared to normal skin; for ncRNA array expression, patient 27: melanoma patient 27 sample compared to normal skin; for ncRNA array expression, patient 28: melanoma patient 28 sample compared to normal skin; for ncRNA array expression, patient 29: melanoma patient 29 sample compared to normal skin; for ncRNA array expression, patient 30: melanoma patient 30 sample compared to normal skin
Procedure, shortened: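 Total RNA from melanocytes, keratinocytes, normal human skin, melanoma cell lines and melanoma patient samples was profiled on an array of >10,000 putative (>200 nt) human and mouse ncRNAs plus RefSeq mRNA probes. Expression was compared with melanocytes or normal skin, keratinocyte signatures were subtracted, and hits were validated by qRT-PCR and Northern blot.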

FGF2 = assay: beta gal target cleavage assay, FGF2; assay type: cell-based, human; conditions: pcDNA6/LacZ/FGF2; data not shown
Procedure: (§1) Target cleavage assays using the miRNA targets from the bioinformatics analyses above were conducted. The 3′ UTR seed sequences of putative target genes were amplified by PCR (Phusion PCR kit, Finnzymes) from human Melanocyte genomic DNA (Primers: ARL2 For-ctcctccaccccagcctgc (SEQ ID NO 92), ARL2 Rev-[…] (SEQ ID NO 93); FGF2 For-[…] (SEQ ID NO 94), FGF2 Rev-[…] (SEQ ID NO 95); RAB22A For-[…] (SEQ ID NO 96), RAB22A Rev-[…] (SEQ ID NO 97); SLC37A3 For-[…] (SEQ ID NO 98), SLC37A3 Rev-[…] (SEQ ID NO 99); TCF12 For-[…] (SEQ ID NO 100), TCF12 Rev-[…] ((SEQ ID NO 101); all primer sets containing 5′ NotI and 3′ AgeI sites). PCR products were cloned into pCR4-TOPO (Invitrogen), confirmed by sequencing, then subcloned into the 3′ UTR of the LacZ gene in pcDNA6/V5-His/LacZ (Invitrogen) using the 5′ NotI and 3′ AgeI restriction sites, and reconfirmed by sequencing (pcDNA6/LacZ/ARL2, pcDNA6/LacZ/FGF2, pcDNA6/LacZ/RAB22A, pcDNA6/LacZ/SLC37A3, and pcDNA6/LacZ/TCF12, respectively). FIG. 11 is an example of the pcDNA6/LacZ construct used within these experiments. As shown, the FGF2 target sequence may be cloned into the 3′ UTR of the LacZ gene. […]

KCNMA1 = assay: beta gal target cleavage assay, KCNMA1; assay type: cell-based, human
SLC37A3 = assay: beta gal target cleavage assay, SLC37A3; assay type: cell-based, human; conditions: A375 cells, mimic co-transfected at 100 nM
Procedure: as §1

RAB22A = assay: beta gal target cleavage assay, RAB22A; assay type: cell-based, human; conditions: A375 cells, mimic co-transfected at 100 nM
Procedure: as §1

TCF12 = assay: beta gal target cleavage assay, TCF12; assay type: cell-based, human; conditions: A375 cells, mimic co-transfected at 100 nM; Kruskal Wallis p-value<0.001
Procedure: Target cleavage assays using the miRNA targets from the bioinformatics analyses above were conducted. The 3' UTR seed sequences of putative target genes were amplified by PCR (Phusion PCR kit, Finnzymes) from human Melanocyte genomic DNA (Primers: ARL2 For-[NT] (SEQ ID NO 92), ARL2 Rev-[NT] (SEQ ID NO 93); FGF2 For-[NT] (SEQ ID NO 94), FGF2 Rev-[NT] (SEQ ID NO 95); RAB22A For-[NT] (SEQ ID NO 96), RAB22A Rev-[NT] (SEQ ID NO 97); SLC37A3 For-[NT] (SEQ ID NO 98), SLC37A3 Rev-[NT] (SEQ ID NO 99); TCF12 For-[NT] (SEQ ID NO 100), TCF12 Rev-[NT] ((SEQ ID NO 101); all primer sets containing [NT] AgeI sites). PCR products were cloned into pCR4-TOPO (Invitrogen), confirmed by sequencing, then subcloned into the 3' UTR of the LacZ gene in pcDNA6/[…]/LacZ (Invitrogen) using the [NT] AgeI restriction sites, and reconfirmed by sequencing (pcDNA6/LacZ/ARL2, pcDNA6/LacZ/FGF2, pcDNA6/LacZ/RAB22A, pcDNA6/LacZ/SLC37A3, and pcDNA6/LacZ/TCF12, respectively). FIG. 11 is an example of the pcDNA6/LacZ construct used within these experiments. As shown, the FGF2 target sequence may be cloned into the 3' UTR of the LacZ gene. A375 Melanoma cell lines were transfected in triplicate (Fugene 6, Roche) with 5 μg plasmid DNA of: […] Negative control sequence is based on cel-miR-67, mature sequence: […] been confirmed to have minimal sequence identity with miRNAs in human, mouse and rat or E) no mimic. […]

Substance | ncRNA array expression, patient 2 (ncRNAs (SEQ ID NO 28-89)) | ncRNA array expression, patient 3 (ncRNAs (SEQ ID NO 28-89)) | ncRNA array expression, patient 4 (ncRNAs (SEQ ID NO 28-89)) | ncRNA array expression, patient 5 (ncRNAs (SEQ ID NO 28-89)) | ncRNA array expression, patient 6 (ncRNAs (SEQ ID NO 28-89)) | ncRNA array expression, patient 7 (ncRNAs (SEQ ID NO 28-89)) | ncRNA array expression, patient 8 (ncRNAs (SEQ ID NO 28-89)) | ncRNA array expression, patient 9 (ncRNAs (SEQ ID NO 28-89)) | ncRNA array expression, patient 10 (ncRNAs (SEQ ID NO 28-89)) | ncRNA array expression, patient 19 (ncRNAs (SEQ ID NO 28-89)) | ncRNA array expression, patient 20 (ncRNAs (SEQ ID NO 28-89)) | ncRNA array expression, patient 21 (ncRNAs (SEQ ID NO 28-89)) | ncRNA array expression, patient 22 (ncRNAs (SEQ ID NO 28-89)) | ncRNA array expression, patient 23 (ncRNAs (SEQ ID NO 28-89)) | ncRNA array expression, patient 24 (ncRNAs (SEQ ID NO 28-89)) | ncRNA array expression, patient 25 (ncRNAs (SEQ ID NO 28-89)) | ncRNA array expression, patient 26 (ncRNAs (SEQ ID NO 28-89)) | ncRNA array expression, patient 27 (ncRNAs (SEQ ID NO 28-89)) | ncRNA array expression, patient 28 (ncRNAs (SEQ ID NO 28-89)) | ncRNA array expression, patient 29 (ncRNAs (SEQ ID NO 28-89)) | further results
SEQ ID NO 88 (CTGTTGCTTATTCTGGGAGCCCAATCCTAGGCTGAGGGAGGTGGGCGCGGGGCTGTTTAA; listed as DNA, chemistry not given here; listed as Homo sapiens) | −1.501 | −1.118 | −1.158 | −1.192 | −0.882 | −1.165 | −1.206 | −1.551 | −1.883 | −0.5619 | −1.6443 | −1.527 | −0.8009 | −0.3034 | −1.128 | −1.933 | −1.942 | −2.173 | −1.861 | −2.1207 | ncRNA array expression, patient 30 (ncRNAs (SEQ ID NO 28-89)): 0.7208
SEQ ID NO 89 (GGACACAGAGAGTCATGCACCAGCCCAGTGAGAACCAATTCAGAGCCAAATGCCAAACCC; listed as DNA, chemistry not given here; listed as Homo sapiens) | −1.09 | −1.2821 | −1.434 | −1.049 | −0.6535 | −0.5162 | −1.137 | −1.442 | −1.643 | −0.5304 | −0.7949 | −1.104 | −0.9143 | −0.3405 | −0.9409 | −1.675 | −1.6 | −0.9956 | −0.9677 | −1.266 | ncRNA array expression, patient 30 (ncRNAs (SEQ ID NO 28-89)): 0.7591
miR-16: miRIDIAN microRNA Mimic (Dharmacon) for miR-16, UAGCAGCACGUAAAUAUUGGCG (commercial miRIDIAN mimic, chemistry not given here; listed as Homo sapiens) |  |  |  |  |  |  |  |  |  |  |  |  |  |  |  |  |  |  |  |  | targeting of FGF2 (target cleavage assay) (FGF2): confirmed
miR-211: miRIDIAN microRNA Mimic (Dharmacon) for miR-211, UUCCCUUUGUCAUCCUUCGCCU (commercial miRIDIAN mimic, chemistry not given here; listed as Homo sapiens) |  |  |  |  |  |  |  |  |  |  |  |  |  |  |  |  |  |  |  |  | target binding in KCNMA1 (beta gal target cleavage assay) (KCNMA1): confirmed; beta-galactosidase activity, SLC37A3 target construct (SLC37A3): decreased; beta-galactosidase activity, RAB22A target construct (RAB22A): decreased; beta-galactosidase activity, TCF-12 target construct (TCF12): statistically significant reduction in fold change
